Assay results reported in US20230220331A1, “TEMPORARY TREATMENT MEDIUM, TREATMENT KIT, EMBRYOGENESIS ARREST INHIBITOR, EMBRYOGENESIS ARREST INHIBITORY METHOD, DEVELOPMENTAL ENGINEERING PRODUCT PREPARATION METHOD, TRANSPLANTATION METHOD, THERAPEUTIC METHOD, AND DEVELOPMENTAL ENGINEERING PRODUCT” (priority 2020, published 2023).

Legend:
[1] = test system: pronuclear stage embryos of inbred rats F344; experiment: Generation of Flox inbred rats (individuals) by one-step method (Treatment Example 12); type: cell-based, rat; settings: F344, floxed p53 1STEP, high concentration, many pulses
Experimental: The pronuclear stage embryos of inbred rats similar to those of Treatment Example 6 according to Example 1 were knocked in by an electroporation method (1STEP method) by using a high concentration ssODN, and further individual preparations were performed. As in the above-mentioned treatment example 6, insertion of the LoxP that was not knocked in at the normal ssODN concentration and the number of transfer pulses was performed with the same temporary treatment as in the above-mentioned Example 1. Specifically, before and after electroporation, 1 hour of the temporary treatment, 24 hours of culture in the normal medium (waiting period), and 1 hour of the temporary treatment were performed. This made it possible to double the concentration of ssODN and the number of electroporations and to knocked in. Further, when the concentration of Cas9 was increased 5 times, Flox inbred rats were obtained by one electroporation.

[2] = test system: frozen embryos of the inbred mouse B6J strain (blastocyst stage); experiment: Surviving embryos after re-freezing and thawing of blastocysts (Treatment Example 9); type: cell-based
Experimental: Then, in the early embryos of the inbred mouse B6J strain, an example of using frozen embryos preserved at the blastocyst stage, using the normal medium or the temporary treatment medium according to the present embodiment before and after the manipulation, and comparing whether the occurrence changes is described. In this treatment example, as the temporary treatment medium, a Y-27632-added mWM medium so as to be 10 μM was used (in this example, it is referred to as “Y+ medium”). In addition, as the normal medium, an mWM medium to which Y-27632 was not added was used (In this example, it is referred to as “Y− medium”). As a treatment, the prepared frozen embryos were thawed and developed as they were in Y− medium until the blastocyst stage. Then, half of the embryos that had developed up to the blastocyst were transferred to Y+ medium and placed for 30 minutes. After that, the embryos were transferred to Y− medium again and placed for 30 minutes. Then, the embryos treated with Y+ medium and the embryos not treated were frozen in one tube, respectively. Both tubes of embryos were then thawed and placed in the normal medium for 10 minutes. Then, the embryos were evenly divided into Y+ medium and Y− medium, respectively, and placed for 1 hour. Then, again, each tube of embryos was returned to Y− medium in each tube and the embryos were observed. […]

[3] = test system: pig fertilized embryos that had undergone in vitro maturation and in vitro fertilization with frozen semen; experiment: Development of electroporated pig IVM/IVF embryos (Treatment Example 5); type: cell-based
Experimental: 1. On the day before TAKE, 5 drops of Y-27632-added PZM-5 medium (Y-27632 final concentration 10 μM, an example of the “temporary treatment medium” of this example) was dropped on a 35 mm Petri dish to prepare a drop coated with paraffin oil. In the drop of this example, 20 μL of medium was added dropwise, 1 mL of oil was added, then 20 μL of medium was added again, and the mixture was completely covered with oil. This drop produced twice as many as the TAKE.
2. IVF was performed based on a method common to those skilled in the art.
3. On the day after fertilization, IVF embryos were placed in Y-27632-added PZM-5 medium and cultured for about 30 minutes to 1 hour (temporary treatment).
4. After that, TAKE was performed.
5. The embryos were returned to Y-27632-free PZM-5 medium (an example of the “normal medium” of this example) and cultured under the conditions of 39° C., 5% CO2, and 5% O2.
6. If necessary, sampling, or the like, was performed at the development stage. If the culture is to be continued until the blastocyst stage, the drops containing Y-27632-free PZM-5 medium and PBM medium was made in the same way as the step of “1.” at four days after insemination.
7. […]
In addition, the effect of the temporary treatment medium of this example was measured on pig fertilized embryos that had undergone in vitro maturation and in vitro fertilization with frozen semen.

[4] = test system: frozen and thawed pronuclear stage and 2-cell stage embryos of rat Wistar-Imamichi; experiment: Genome-edited individuals by frozen 1-2 cell TAKE of Wistar-Imamichi (Treatment Example 17); type: cell-based
Description: Next, knock-outs by TAKE were also produced in the pronuclear stage (1 cell) and the 2-cell stage (2 cells) […] of the frozen and thawed inbred rat Wistar-Imamichi. The conditions at this time were that the gRNA concentration was a specified amount (1 time), the pulse was 7 times, and the reduction rate was 40%.

[5] = test system: Early embryos of the heterologous mouse Mus caroli; experiment: ES cell establishment from electroporated early embryos (Treatment Example 4); type: cell-based; settings: Mus caroli early embryos cultured in Y-27632 medium, then electroporated
Experimental: 1. Up to 3 hours before TAKE, Y-27632-added mWM medium (Y-27632 final concentration 10 μM, an example of the “temporary treatment medium” of this example), Y-27632-free mWM medium (an example of “normal medium” of this example) were dropped into 35 mm Petri dishes by 5 drops, respectively, to prepare drops covered with paraffin oil.
2. Two-cell stage embryos were collected from the drops or thawed, placed in Y-27632-added mWM medium, and cultured for about 30 minutes to 1 hour (temporary treatment).
3. After that, TAKE was performed.
4. After TAKE, the embryos were placed in Y-27632-added mWM medium and cultured for about 30 minutes to 1 hour (temporary treatment). Then, the embryos were placed in Y-27632-free mWM medium and cultured at 37° C. under 5% CO2 and 5% O2 conditions until transplantation.
5. Then, if necessary, the culture was continued in the Y-27632-free mWM medium to establish ES cells.
When Mus caroli ES cells were knocked out of the Tyr gene by genome editing and a part of them was analyzed, it was shown that NHEJ occurred and heterologous mouse ES cells were established.

[6] = Y+ before freezing and Y+ after thawing, 26 embryos
[7] = Y+ before freezing, Y− after thawing, 26 embryos
[8] = Y− before freezing, Y+ after thawing, 20 embryos

## C[C@@H](N)[C@H]1CC[C@H](C(=O)Nc2ccncc2)CC1 [Y-27632, trans-4-[(1R)-1-Aminoethyl]-N-4-pyrid inylcyclohexanecarboxamide]
[1]; 92 transplanted embryos
  NUMBER OF FLOX INDIVIDUALS / FLOX (2 SITES): 1/9
[1]; listed as +Y
  Flox individuals %: 11%
[1]; listed as Y
  Flox individuals %: 11.1%
[2]; [6]
  NUMBER OF OUTGROWTH, 24 hours after thawing: (11)
  surviving embryos 3 HOURS AND A HALF AFTER THAWING: 12
  surviving embryos 24 HOURS AFTER THAWING: 24
  surviving embryos IMMEDIENTLY AFTER THAWING: 7
[2]; Y+ before freezing and Y+ after thawing, 26 embryos, frozen twice, listed as Y+
  RECOVERY RATE: 92%
[2]; Y+ before freezing and Y+ after thawing, 26 embryos, frozen twice, listed as Y+ medium
  RECOVERY RATE: up to 92%
[2]; [7]
  NUMBER OF OUTGROWTH, 24 hours after thawing: (7)
  RECOVERY RATE: 70%
  surviving embryos 3 HOURS AND A HALF AFTER THAWING: 11
  surviving embryos 24 HOURS AFTER THAWING: 14
  surviving embryos IMMEDIENTLY AFTER THAWING: 6
[2]; [8]
  NUMBER OF OUTGROWTH, 24 hours after thawing: (3)
  RECOVERY RATE: 55%
  surviving embryos 3 HOURS AND A HALF AFTER THAWING: 5
  surviving embryos 24 HOURS AFTER THAWING: 11
[2]; Y− before freezing, Y+ after thawing, 20 embryos, Y-27632 10 μM
  surviving embryos IMMEDIENTLY AFTER THAWING: 3
[3]
  2-cell stage embryos developed into late blastocysts (proportion): 35 out of 123
[4]; 37 TAKE embryos, 1 recipient
  NUMBER OF KO INDIVIDUALS (Large Deletion): 2
[4]; 37 TAKE embryos, 1 recipient, 1x gRNA, 7 pulses, 40% reduction rate
  NUMBER OF NEWBORNS: 8
[4]; KO individuals / newborns analyzed
  KO rate (Large deletion) (%): (25%)
[5]
  ES cells established: at a high rate
